Among the data in patent US11739089B2, “Acetamido-phenyltetrazole derivatives and methods of using the same” (Athenex, Inc., priority 2020, dated 2023) are EC50 and IC50 values, retold here.

pEC50, pIC50: −log10 of the molar value. Like-named read-outs stand apart in the source and are kept apart here. Bounds are passed on as bounds.

The target of one data set is P-glycoprotein (Homo sapiens (Human), UniProt P08183). Description: P-glycoprotein inhibitory activity: MTT cell growth assay in P-gp overexpressing MES-SA/DX5 cells with docetaxel or paclitaxel. It counts as cell-based. To be noted: 3 days, with 100 nM docetaxel or 200 nM paclitaxel, MTT readout. How it is done:
P-glycoprotein inhibitory activity may be determined by an assay wherein P-glycoprotein overexpressed cell lines are treated with increasing concentrations of a compound of the present disclosure and therapeutic agent for three days, followed by an MTT assay.
Cell growth percentage may be calculated with the following equation: Cell growth percentage=(T−T0)/(C−T0)×100%, wherein T is OD of the test well exposure to Compound; C is OD of the control well without Compound treatment; and T0 is OD at time zero.
A P-glycoprotein overexpressing cell line derived from the human uterine sarcoma cell line MES-SA (i.e., MES-SA/DX5 cells (ATCC)) was seeded by stepwise exposures to increasing concentrations of doxorubicin, in a 96-well plate at 6,500 cells/100 μL media (McCoy's 5A+10% FBS) in each well. The cells were incubated overnight at 37° C. 5% CO2. Compounds were diluted in a separate 96-well plate to yield 11× of final concentration (final Compound concentrations were 0, 5, 20, 80, 320, and 1280 nM and the final docetaxel concentration was 100 nM or the final paclitaxel concentration was 200 nM). DMSO was used as a negative control and known P-glycoprotein inhibitor, encequidar methane sulfonic acid monohydrate (HM30181A), was used as a positive control. 10 μL of the 11× dilutions was added to the appropriate well, P-glycoprotein inhibition wells comprised Compound+docetaxel (or Compound+paclitaxel). The compound toxicity wells comprised 1280 nM Compound+10 μL of culture media. Treated the cells were incubated for 3 days at 37° C. 5% CO2.
To value (reflecting the starting number of cells upon Compound treatment) of 3 wells of cells was determined by performing the following steps 1-4 as described below.
1. 10 μL MTT (5 mg/mL in PBS) was added to each well and incubated for 1.5 hours at 37° C. 5% CO2.
2. Culture media was removed and 100 μL of DMSO was added to each well.
3. The plate was gently shook until all purple MTT formazan crystals were dissolved. OD540 was then measured using microplate reader.
4. Cell growth percentage was calculated with the following equation: Cell growth percentage=(T−T0)/(C−T0)×100%, wherein T is OD of the test well exposure to Compound; C is OD of the control well without Compound treatment; and T0 is OD at time zero.
(In general: Tetrazolium assays rely on reduction of a dye to a coloured formazan, in cell work by metabolically active cells.)

A further data set deals with CYP3A4 (Homo sapiens (Human), UniProt P08684). Description: CYP3A4 inhibitory activity: Luciferin-IPA (P450-Glo) assay with human liver microsome. How it is done: Cytochrome P450 activity may be determined by a P450-Glo™ assay (Promega) with human liver microsomes wherein the compounds of the present disclosure are dosed at different concentrations in buffer and incubated. Dose-response curve and IC50 data may be obtained and fit to a nonlinear regression model using GraphPad Prism software (v6.0).
Sequence of CYP3A4 (P08684 whole entry): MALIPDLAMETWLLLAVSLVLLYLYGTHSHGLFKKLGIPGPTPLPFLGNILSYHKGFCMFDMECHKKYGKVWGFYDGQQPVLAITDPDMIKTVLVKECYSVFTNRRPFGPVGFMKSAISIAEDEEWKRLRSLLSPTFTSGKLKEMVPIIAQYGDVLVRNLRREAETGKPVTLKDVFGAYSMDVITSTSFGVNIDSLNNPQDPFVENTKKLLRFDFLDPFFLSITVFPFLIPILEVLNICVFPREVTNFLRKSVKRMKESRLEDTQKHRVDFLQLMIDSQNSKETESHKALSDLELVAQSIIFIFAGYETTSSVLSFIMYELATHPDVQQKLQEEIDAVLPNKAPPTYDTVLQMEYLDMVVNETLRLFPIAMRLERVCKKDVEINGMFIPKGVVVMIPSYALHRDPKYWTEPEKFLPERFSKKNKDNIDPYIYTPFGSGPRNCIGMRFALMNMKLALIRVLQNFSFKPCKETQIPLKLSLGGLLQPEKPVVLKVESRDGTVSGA
The standard final Compound concentrations were 37, 111, 333, 1000, and 3000 nM. 12.5 μL of the Compound dilutions were transferred to a white 96-well plate. 1450 μL (enough for a whole plate) of 4× assay buffer (400 mM potassium phosphate buffer (10 mL 1M potassium phosphate buffer: 8.02 mL 1M K2HPO4+1.98 mL 1M KH2PO4 (1.4 g K2HPO4+0.27 g KH2PO4 in 10 mL H2O), 32 μM Luciferin-IPA (Promega V9002)) 580 μl of 1 M K3PO4 buffer, 870 μL H2O, 14 μL of 3 mM Luciferin-IPA, and 18 μL of human liver microsome (Sigma M0317-1VL) was made. 12.5 μL of 4× assay buffer was added to each well. For the well of blank control, 12.5 μL of 4× assay buffer without liver microsome was added. The plate was incubated at room temperature for 15 minutes. 2.75 mL NADPH buffer was made as follows: 2.42 mL H2O, 275 μL solution A and 55 μL solution B (NADPH regeneration system, Promega V9510). 25 μL of the buffer was added to each well. The plates were incubated at 37° C. for 11 minutes. 50 μL of luciferin detection reagent (Promega V9002) was added and the plates were incubated at room temperature for 5 minutes. The plate was read with a luminometer.
The dose-response curve and IC50 were obtained by fitting data to nonlinear regression model using GraphPad Prism software (v6.0).
(Microsomes from liver hold many membrane-bound enzymes, among them those of drug oxidation.)

Sequence of P-glycoprotein (P08183 whole entry): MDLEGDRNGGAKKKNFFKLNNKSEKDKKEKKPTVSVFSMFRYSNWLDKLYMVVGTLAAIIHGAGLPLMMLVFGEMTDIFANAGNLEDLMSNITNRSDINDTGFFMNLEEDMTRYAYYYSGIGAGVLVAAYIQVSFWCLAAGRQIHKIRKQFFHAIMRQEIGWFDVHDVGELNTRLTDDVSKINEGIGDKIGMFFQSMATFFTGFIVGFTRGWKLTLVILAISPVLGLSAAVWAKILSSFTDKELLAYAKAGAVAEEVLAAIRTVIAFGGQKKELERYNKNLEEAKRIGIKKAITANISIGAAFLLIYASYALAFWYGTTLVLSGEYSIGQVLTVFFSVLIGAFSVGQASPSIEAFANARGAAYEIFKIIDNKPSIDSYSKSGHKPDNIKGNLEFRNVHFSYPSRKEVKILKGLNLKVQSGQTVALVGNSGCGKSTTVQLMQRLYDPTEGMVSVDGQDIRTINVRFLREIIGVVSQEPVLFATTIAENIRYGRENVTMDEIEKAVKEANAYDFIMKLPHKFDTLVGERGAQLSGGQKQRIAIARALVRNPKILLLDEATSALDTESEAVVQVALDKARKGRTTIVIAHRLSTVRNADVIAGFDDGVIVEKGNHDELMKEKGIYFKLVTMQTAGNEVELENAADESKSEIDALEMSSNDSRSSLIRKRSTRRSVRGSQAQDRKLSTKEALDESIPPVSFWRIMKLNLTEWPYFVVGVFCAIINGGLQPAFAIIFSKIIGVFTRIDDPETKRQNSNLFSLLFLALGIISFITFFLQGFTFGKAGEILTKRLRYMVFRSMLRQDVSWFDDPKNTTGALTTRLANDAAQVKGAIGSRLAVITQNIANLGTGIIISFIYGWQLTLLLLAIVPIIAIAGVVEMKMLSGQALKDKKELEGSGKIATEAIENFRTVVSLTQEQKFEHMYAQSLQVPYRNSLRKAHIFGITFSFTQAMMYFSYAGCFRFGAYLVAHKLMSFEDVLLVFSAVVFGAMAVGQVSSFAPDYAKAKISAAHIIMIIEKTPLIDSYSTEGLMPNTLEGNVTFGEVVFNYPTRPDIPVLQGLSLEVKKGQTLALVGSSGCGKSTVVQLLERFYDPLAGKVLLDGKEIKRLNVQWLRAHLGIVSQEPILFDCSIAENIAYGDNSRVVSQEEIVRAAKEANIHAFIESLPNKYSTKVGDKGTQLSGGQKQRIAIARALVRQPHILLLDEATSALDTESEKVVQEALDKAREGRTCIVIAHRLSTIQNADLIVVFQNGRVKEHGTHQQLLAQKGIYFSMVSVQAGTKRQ

On to `COc1cc(NC(=O)c2cc(=O)c3ccccc3o2)c(-c2nnn(-c3ccc(CCN4CCc5cnccc5C4)cc3)n2)cc1OCc1ccccc1` [Compound 12, N-(4-(Benzyloxy)-2-(2-(4-(2-(3,4-dihydro-2,6-naphthyridin-2(1H)-yl)ethyl)phenyl)-2H-tetrazol-5-yl)-5-methoxyphenyl)-4-oxo-4H-chromene-2-carboxamide], for which, at P-glycoprotein, the pEC50 (in general, −log10 of the EC50, conventionally taken in molar units) is over 7.00. Moreover, on CYP3A4 (human, microsomes, 11 min), the pIC50 (usually the IC50 on a negative log10 scale, so that one unit is a factor of ten) is under 6.00.
In the case of `COc1cc2c(cc1OC)CN(CCc1ccc(-n3nnc(-c4cc(OC)c(OC)cc4NC(=O)c4cc(=O)c5cc(-c6ccncc6)ccc5o4)n3)cc1)CC2` [Compound 19, N-(2-(2-(4-(2-(6,7-Dimethoxy-3,4-dihydroisoquinolin-2(1H)-yl)ethyl)phenyl)-2H-tetrazol-5-yl)-4,5-dimethoxyphenyl)-4-oxo-6-(pyridin-4-yl)-4H-chromene-2-carboxamide], the pEC50 at P-glycoprotein was under 6.00. On CYP3A4 (human, microsomes, 11 min), this compound had a pIC50 of under 6.00.
Compound `COc1cc2c(cc1OC)CN(CCc1ccc(-n3nnc(-c4cc(OCCc5cccnc5)ccc4NC(=O)c4cc(=O)c5ccccc5o4)n3)cc1)CC2` [Compound 28, N-(2-(2-(4-(2-(6,7-Dimethoxy-3,4-dihydroisoquinolin-2(1H)-yl)ethyl)phenyl)-2H-tetrazol-5-yl)-4-(2-(pyridin-3-yl)ethoxy)phenyl)-4-oxo-4H-chromene-2-carboxamide] showed a pEC50 at P-glycoprotein of 6.60 to 7.00. This compound showed a pIC50 against CYP3A4 of 6.00 to 6.30.
At P-glycoprotein, `COc1cc2c(cc1OC)CN(CCc1ccc(-n3nnc(-c4cc(OC)c(OC)cc4NC(=O)c4cc(=O)c5cc(-n6ccnc6)ccc5o4)n3)cc1)CC2` [Compound 20, N-(2-(2-(4-(2-(6,7-Dimethoxy-3,4-dihydroisoquinolin-2(1H)-yl)ethyl)phenyl)-2H-tetrazol-5-yl)-4,5-dimethoxyphenyl)-6-(1H-imidazol-1-yl)-4-oxo-4H-chromene-2-carboxamide] gave a pEC50 of under 6.00. This compound also showed a pIC50 against CYP3A4 (human, microsomes, 11 min) of under 6.00.
For the compound `COc1cc(NC(=O)c2cc(=O)c3ccccc3o2)c(-c2nnn(-c3ccc(CCN4CCc5cc(-n6ccnc6)ccc5C4)cc3)n2)cc1OC` [Compound 8, N-(2-(2-(4-(2-(6-(1H-Imidazol-1-yl)-3,4-dihydroisoquinolin-2(1H)-yl)ethyl)phenyl)-2H-tetrazol-5-yl)-4,5-dimethoxyphenyl)-4-oxo-4H-chromene-2-carboxamide], the pEC50 at P-glycoprotein was under 6.00. The pIC50 against CYP3A4 is 6.60 to 7.00.
On the same counts, the results for `COc1cc(NC(=O)c2cnc3ccccc3c2)c(-c2nnn(-c3ccc(CCN4CCc5cnccc5C4)cc3)n2)cc1OC` [Compound 2, N-(2-(2-(4-(2-(3,4-Dihydro-2,6-naphthyridin-2(1H)-yl)ethyl)phenyl)-2H-tetrazol-5-yl)-4,5-dimethoxyphenyl)quinoline-3-carboxamide] are 6.60 to 7.00 and 6.60 to 7.00.
The compound `COc1cc(NC(=O)c2cc(=O)c3ccccc3o2)c(-c2nnn(-c3ccc(CCN4CCn5cncc5C4)cc3)n2)cc1OCc1ccccc1` [Compound 18, N-(4-(Benzyloxy)-2-(2-(4-(2-(5,6-dihydroimidazo[1,5-a]pyrazin-7(8H)-yl)ethyl)phenyl)-2H-tetrazol-5-yl)-5-methoxyphenyl)-4-oxo-4H-chromene-2-carboxamide] gave a pEC50 on P-glycoprotein of over 7.00. Besides, the pIC50 against CYP3A4 (human, microsomes, 11 min) is under 6.00.
Compound `COc1cc(NC(=O)c2cnc3ccccc3c2)c(-c2nnn(-c3ccc(CCN(Cc4cccc(-n5ccnc5)c4)Cc4ccc5c(cnn5C)c4)cc3)n2)cc1OC` [Compound 4, N-(2-(2-(4-(2-((3-(1H-Imidazol-1-yl)benzyl)((1-methyl-1H-indazol-5-yl)methyl)amino)ethyl)phenyl)-2H-tetrazol-5-yl)-4,5-dimethoxyphenyl)quinoline-3-carboxamide] showed a pEC50 on P-glycoprotein of 6.00 to 6.30. The compound also gave a pIC50 at CYP3A4 of 6.00 to 6.30.
Compound `COc1cc2c(cc1OC)CN(CCc1ccc(-n3nnc(-c4cc(OCc5ccncc5)ccc4NC(=O)c4cc(=O)c5ccccc5o4)n3)cc1)CC2` [Compound 26, N-(2-(2-(4-(2-(6,7-Dimethoxy-3,4-dihydroisoquinolin-2(1H)-yl)ethyl)phenyl)-2H-tetrazol-5-yl)-4-(pyridin-4-ylmethoxy)phenyl)-4-oxo-4H-chromene-2-carboxamide] showed a pEC50 on P-glycoprotein of over 7.00. Moreover, on CYP3A4 (human, microsomes, 11 min), the pIC50 is under 6.00.
`COc1cc2c(cc1OC)CN(CCc1ccc(-n3nnc(-c4cc(OCc5cccnc5)c(OC)cc4NC(=O)c4cc(=O)c5ccccc5o4)n3)cc1)CC2` [Compound 30, N-(2-(2-(4-(2-(6,7-Dimethoxy-3,4-dihydroisoquinolin-2(1H)-yl)ethyl)phenyl)-2H-tetrazol-5-yl)-5-methoxy-4-(pyridin-3-ylmethoxy)phenyl)-4-oxo-4H-chromene-2-carboxamide] had a pEC50 at P-glycoprotein of over 7.00. Further, the pIC50 on CYP3A4 (human, microsomes, 11 min) was under 6.00.
In the case of `COc1cc2c(cc1OC)CN(CCc1ccc(-n3nnc(-c4cc(Oc5cccnc5)ccc4NC(=O)c4cc(=O)c5ccccc5o4)n3)cc1)CC2` [Compound 24, N-(2-(2-(4-(2-(6,7-Dimethoxy-3,4-dihydroisoquinolin-2(1H)-yl)ethyl)phenyl)-2H-tetrazol-5-yl)-4-(pyridin-3-yloxy)phenyl)-4-oxo-4H-chromene-2-carboxamide], on P-glycoprotein, the pEC50 is over 7.00. For the same compound, on CYP3A4 (human, microsomes, 11 min), the pIC50 is under 6.00.
`COc1cc(NC(=O)c2cnc3ccccc3n2)c(-c2nnn(-c3ccc(CCN4CCc5cnccc5C4)cc3)n2)cc1OC` [Compound 9, N-(2-(2-(4-(2-(3,4-Dihydro-2,6-naphthyridin-2(1H)-yl)ethyl)phenyl)-2H-tetrazol-5-yl)-4,5-dimethoxyphenyl)quinoxaline-2-carboxamide] showed a pEC50 on P-glycoprotein of under 6.00. This compound also gave a pIC50 at CYP3A4 of 6.00 to 6.30.
On to `COC(=O)c1ccc(-c2nnn(-c3ccc(CCN(C)Cc4ccc5c(cnn5C)c4)cc3)n2)c(NC(=O)c2cc(=O)c3ccccc3o2)c1` [Compound 15, Methyl 4-(2-(4-(2-(methyl((1-methyl-1H-indazol-5-yl)methyl)amino)ethyl)phenyl)-2H-tetrazol-5-yl)-3-(4-oxo-4H-chromene-2-carboxamido)benzoate], for which the pEC50 on P-glycoprotein is over 7.00. For the same compound, at CYP3A4, the pIC50 is under 6.00.
